Reference: EP0942066A2, “Cell line of blood-brain barrier” (KYOWA HAKKO KOGYO CO., LTD., priority 1998, dated 1999)

T1: GLUT1 (Mus musculus, UniProt P17809)
T1 construct: A band indicating the expression of GLUT-1 was confirmed in any of TM-BBB1, TM-BBB2, TM-BBB3, TM-BBB4 and TM-BBB5; endogenous in cells; host or cells: TM-BBB1 to TM-BBB5, conditionally immortalised mouse brain capillary endothelial cell lines (SV40tsA58 large T transgenic mice)
T1 sequence (P17809 1-492): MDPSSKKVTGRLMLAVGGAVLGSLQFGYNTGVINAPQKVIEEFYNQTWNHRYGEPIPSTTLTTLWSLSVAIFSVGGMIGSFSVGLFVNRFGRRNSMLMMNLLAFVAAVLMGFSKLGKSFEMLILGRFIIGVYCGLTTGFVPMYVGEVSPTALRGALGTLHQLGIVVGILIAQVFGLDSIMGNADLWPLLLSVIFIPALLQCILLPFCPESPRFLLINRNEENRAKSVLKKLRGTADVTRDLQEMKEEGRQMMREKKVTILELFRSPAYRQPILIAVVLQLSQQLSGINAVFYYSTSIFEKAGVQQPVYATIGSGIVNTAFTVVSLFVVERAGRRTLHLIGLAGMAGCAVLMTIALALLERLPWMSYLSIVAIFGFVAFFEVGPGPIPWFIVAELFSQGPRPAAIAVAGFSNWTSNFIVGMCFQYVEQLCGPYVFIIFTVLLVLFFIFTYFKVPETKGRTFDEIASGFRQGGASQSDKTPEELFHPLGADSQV


Key:
[1] = biological target: T1, GLUT1; test: Incorporation of 3-O-methyl-D-glucose (3-OMG) into brain capillary endothelial cell lines TM-BBB (glucose transfer ability); type: cell-based; conditions: incorporation of [^3H]3-OMG into TM-BBB cell lines, uptake buffer 37°C, 20 seconds
Description: (§1) Each of TM-BBB's was plated onto a 24-well cell culture plate at a density of 3×10^5 cells/well/mℓ medium and cultured in a CO2 incubator at 33°C for 24 hours to make the cells confluent. The incorporation of 3-OMG was measured in the following manner. […] Ten seconds later, the uptake buffer was removed, and the cells were washed with the uptake buffer at 4°C. Subsequently, the uptake buffer was removed after 20 seconds, 30 seconds, 1 minute, or 10 minutes, and the cells were treated in the same manner. […] Twenty seconds later, the uptake buffer was removed, and the cells were washed with the uptake buffer at 4°C. Then, the cells were lyzed overnight with 1 mℓ PBS containing 1% Triton X-100 and then measured for radioactivity in a liquid scintillation counter. […] Pharmacobio-Dyn, 4: 879-885 (1981)] using a plot formula (V = Vmax x [S]/(Km + [S]); […]

[2] = tested on: L-glutamic acid transporter; test: Incorporation of [^3H]L-glutamic acid into astrocyte cell lines TR-AST (glutamic acid transport ability); type: cell-based, rat; conditions: for incorporation of [^3H]L-Glu, expressed in % relative to the control: 1 mM of the inhibitor, control = 100±5; for inhibition of incorporation of [^3H]L-Glu (in words): other substrates of the transporter
Description: The glutamic acid transport ability of the cell lines obtained in Example 4, that is, TR-AST32, TR-AST811, TR-AST912, TR-AST932, TR-AST943 was examined by incorporation of [^3H]L-glutamic acid ([^3H]L-Glu). Each TR-AST's was plated onto a 24-well cell culture plate at a density of 2×10^5 cells/well and cultured in a CO2 incubator at 33°C to make the cells confluent. The incorporation of [^3H]L-Glu was measured in the following manner. First, the medium was suctioned, and the cells were washed with an uptake buffer at 37°C, and 0.2 mℓ uptake buffer containing 46.3 kBq/well [^3H]L-Glu and 9.25 kBq/mℓ [^14C]inulin at 37°C was added, and the tracer solution was removed after 2, 5, 10 or 30 minutes, and the cells were washed 3 times with 1 mℓ uptake buffer at 4°C. To the cells, 0.75 mℓ of 1% Triton X-100 was added, and the cells were allowed to stand overnight so that they were lyzed and then the lysate was measured for radioactivity in a liquid scintillation counter.
The Km and Vmax for incorporation of […] were analyzed using a non-linear minimum square program [Yamaoka, K. et al., J. Pharmacobio-Dyn, 4, 879-885 (1981)] using a plot formula (V = Vmax × [S]/(Km + [S]); Vmax is a maximum rate constant, Km is a Michaelis constant, and [S] is a substrate concentration) for the rate of incorporation of L-Glu. […]

[3] = substrate: CO[C@@H]([C@H](O)[C@H](O)CO)[C@@H](O)C=O; test: Incorporation of 3-O-methyl-D-glucose (3-OMG) into brain capillary endothelial cell lines TM-BBB (glucose transfer ability); type: cell-based, mouse; conditions: other: incorporation of [^3H]3-OMG into TM-BBB cell lines, uptake buffer 37°C, 20 seconds, 0.5-50 mM unlabelled 3-OMG, pH 7.4
Description: as §1

| Molecule | incorporation of [^3H]L-Glu, expressed in % relative to the control [2] | inhibition of incorporation of [^3H]L-Glu (in words) [2] | further results |
| --- | --- | --- | --- |
| CO[C@@H]([C@H](O)[C@H](O)CO)[C@@H](O)C=O [3-OMG, 3-O-methyl-D-glucose] | – | – | maximum incorporation rate constant (Vmax) [1]: 44 nmol/min/mg protein |
| N[C@H](CC(=O)O)C(=O)O [D-Asp, D-aspartic acid] | 67±6% | significantly inhibited | – |
| N[C@@H](CC(=O)O)C(=O)O [L-Asp, L-aspartic acid] | 57±2% | significantly inhibited | – |
| N[C@@H](CCC(=O)O)C(=O)O [L-Glu, L-glutamic acid] | 8.3±1.5% | – | maximum incorporation rate constant (Vmax) ([2]; incorporation of [^3H]L-Glu into TR-AST cell lines, 37°C): 1.8 nmol/min/mg protein; Km ([2]; incorporation of [^3H]L-Glu into TR-AST cell lines, 37°C, read-out: Michaelis constant (Km)): 96 µM |
| GLUT1 (Mus musculus) (protein, A band indicating the expression of GLUT-1 was confirmed in any of TM-BBB1, TM-BBB2, TM-BBB3, TM-BBB4 and TM-BBB5; endogenous in cells; host or cells: TM-BBB1 to TM-BBB5, conditionally immortalised mouse brain capillary endothelial cell lines (SV40tsA58 large T transgenic mice)) MDPSSKKVTGRLMLAVGGAVLGSLQFGYNTGVINAPQKVIEEFYNQTWNHRYGEPIPSTTLTTLWSLSVAIFSVGGMIGSFSVGLFVNRFGRRNSMLMMNLLAFVAAVLMGFSKLGKSFEMLILGRFIIGVYCGLTTGFVPMYVGEVSPTALRGALGTLHQLGIVVGILIAQVFGLDSIMGNADLWPLLLSVIFIPALLQCILLPFCPESPRFLLINRNEENRAKSVLKKLRGTADVTRDLQEMKEEGRQMMREKKVTILELFRSPAYRQPILIAVVLQLSQQLSGINAVFYYSTSIFEKAGVQQPVYATIGSGIVNTAFTVVSLFVVERAGRRTLHLIGLAGMAGCAVLMTIALALLERLPWMSYLSIVAIFGFVAFFEVGPGPIPWFIVAELFSQGPRPAAIAVAGFSNWTSNFIVGMCFQYVEQLCGPYVFIIFTVLLVLFFIFTYFKVPETKGRTFDEIASGFRQGGASQSDKTPEELFHPLGADSQV | – | – | Km [3]: 6600 µM |
